According to patent US20250333424A1, “ANTIVIRAL COMPOUNDS” (Gilead Sciences, Inc., priority 2024, published 2025):

System: monocytic THP1 cells infected with HIV VSV-G pseudotyped GFP-NEF reporter virus
Experiment: cells
Type: cell-based
Settings: Human immunodeficiency virus 1, THP-1, 24 h

SMILES | EC50 [nM]
Cc1cc(/C=C/C#N)cc(C)c1Oc1nc(NC23CC(C#N)(C2)C3)nc2c1C(OCC(F)F)NC2=O (stereo not shown) [Compound 289, (E)-3-((4-(4-(2-cyanovinyl)-2,6-dimethylphenoxy)-5-(2,2-difluoroethoxy)-7-oxo-6,7-dihydro-5H-pyrrolo[3,4-d]pyrimidin-2-yl)amino)bicyclo[1.1.1]pentane-1-carbonitrile] | 52.9
Cc1cc(/C=C/C#N)cc(C)c1Oc1nc(NC23CC(C#N)(C2)C3)nc2c(=O)n(C)[nH]c12 [Compound 290, (E)-3-((7-(4-(2-cyanovinyl)-2,6-dimethylphenoxy)-2-methyl-3-oxo-2,3-dihydro-1H-pyrazolo[4,3-d]pyrimidin-5-yl)amino)bicyclo[1.1.1]pentane-1-carbonitrile] | 387
Cc1cc(/C=C/C#N)cc(C)c1Oc1nc(NC23CC(C#N)(C2)C3)nc2c(=O)n(C)n(C)c12 [Compound 291, (E)-3-((7-(4-(2-cyanovinyl)-2,6-dimethylphenoxy)-1,2-dimethyl-3-oxo-2,3-dihydro-1H-pyrazolo[4,3-d]pyrimidin-5-yl)amino)bicyclo[1.1.1]pentane-1-carbonitrile] | 31.1
Cc1cc(/C=C/C#N)cc(C)c1Oc1nc(NC23CC(C#N)(C2)C3)nc2c(=O)n(C)n(C(F)F)c12 [Compound 292, (E)-3-((7-(4-(2-cyanovinyl)-2,6-dimethylphenoxy)-1-(difluoromethyl)-2-methyl-3-oxo-2,3-dihydro-1H-pyrazolo[4,3-d]pyrimidin-5-yl)amino)bicyclo[1.1.1]pentane-1-carbonitrile] | 58.8
COc1n[nH]c2c(Oc3c(C)cc(/C=C/C#N)cc3C)nc(NC34CC(C#N)(C3)C4)nc12 [Compound 293, (E)-3-((7-(4-(2-cyanovinyl)-2,6-dimethylphenoxy)-3-methoxy-1H-pyrazolo[4,3-d]pyrimidin-5-yl)amino)bicyclo[1.1.1]pentane-1-carbonitrile] | 56.3
CCOc1nn(CC)c2c(Oc3c(C)cc(/C=C/C#N)cc3C)nc(NC34CC(C#N)(C3)C4)nc12 [Compound 294, (E)-3-((7-(4-(2-cyanovinyl)-2,6-dimethylphenoxy)-3-ethoxy-1-ethyl-1H-pyrazolo[4,3-d]pyrimidin-5-yl)amino)bicyclo[11.1.1]pentane-1-carbonitrile] | 23.3
Cc1cc(/C=C/C#N)cc(C)c1Oc1nc(NC23CC(C#N)(C2)C3)nc2c(=O)n3n(c12)CCC3 [Compound 295, (E)-3-((4-(4-(2-cyanovinyl)-2,6-dimethylphenoxy)-10-oxo-7,8-dihydro-6H,10H-pyrazolo[1′,2′:1,2]pyrazolo[4,3-d]pyrimidin-2-yl)amino)bicyclo[1.1.1]pentane-1-carbonitrile] | 55.3
Cc1cc(/C=C/C#N)cc(C)c1Oc1nc(NC23CC(C#N)(C2)C3)nc2snc(C)c12 [Compound 296, (E)-3-((4-(4-(2-cyanovinyl)-2,6-dimethylphenoxy)-3-methylisothiazolo[5,4-d]pyrimidin-6-yl)amino)bicyclo[1.1.1]pentane-1-carbonitrile] | 59.5
Cc1cc(/C=C/C#N)cc(C)c1Oc1nc(NC23CC(C#N)(C2)C3)nc2c1c(C)n[s+]2[O-] (stereo not shown) [Compound 297, (E)-3-((4-(4-(2-cyanovinyl)-2,6-dimethylphenoxy)-3-methyl-1-oxidoisothiazolo[5,4-d]pyrimidin-6-yl)amino)bicyclo[1.1.1]pentane-1-carbonitrile] | 159
CCOc1nc2nc(NC34CC(C#N)(C3)C4)nc(Oc3c(C)cc(/C=C/C#N)cc3C)c2n1C [Compound 298, (E)-3-((6-(4-(2-cyanovinyl)-2,6-dimethylphenoxy)-8-ethoxy-7-methyl-7H-purin-2-yl)amino)bicyclo[1.1.1]pentane-1-carbonitrile] | 87.3
Cc1cc(/C=C/C#N)cc(C)c1Oc1nc(NC23CC(C#N)(C2)C3)nc2nn3ccccc3c12 [Compound 299, (E)-3-((4-(4-(2-cyanovinyl)-2,6-dimethylphenoxy)pyrido[1′,2′:1,5]pyrazolo[3,4-d]pyrimidin-2-yl)amino)bicyclo[1.1.1]pentane-1-carbonitrile] | 40.1
Cc1cc(/C=C/C#N)cc(C)c1Oc1nc(NC23CC(C#N)(C2)C3)nc2occ(C)c12 [Compound 300, (E)-3-((4-(4-(2-cyanovinyl)-2,6-dimethylphenoxy)-5-methylfuro[2,3-d]pyrimidin-2-yl)amino)bicyclo[1.1.1]pentane-1-carbonitrile] | 87.6
Cc1cc(/C=C/C#N)cc(C)c1Oc1nc(NC23CC(C#N)(C2)C3)nc2nn3c(c12)OCCC3 [Compound 301, (E)-3-((4-(4-(2-cyanovinyl)-2,6-dimethylphenoxy)-7,8-dihydro-6H-pyrimido[4′,5′:3,4]pyrazolo[5,1-b][1,3]oxazin-2-yl)amino)bicyclo[1.1.1]pentane-1-carbonitrile] | 50.7
Cc1cc(/C=C/C#N)cc(C)c1Oc1nc(NC23CC(C#N)(C2)C3)nc2[nH]cc(C)c12 [Compound 302, (E)-3-((4-(4-(2-cyanovinyl)-2,6-dimethylphenoxy)-5-methyl-7H-pyrrolo[2,3-d]pyrimidin-2-yl)amino)bicyclo[1.1.1]pentane-1-carbonitrile] | 211
Cc1cc(/C=C/C#N)cc(C)c1Oc1nc(NC23CC(C#N)(C2)C3)nc2[nH]c(C)c(C)c12 [Compound 303, (E)-3-((4-(4-(2-cyanovinyl)-2,6-dimethylphenoxy)-5,6-dimethyl-7H-pyrrolo[2,3-d]pyrimidin-2-yl)amino)bicyclo[1.1.1]pentane-1-carbonitrile] | 232
Cc1cc(/C=C/C#N)cc(C)c1Oc1nc(NC23CC(C#N)(C2)C3)nc2nn(CC#N)cc12 [Compound 304, (E)-3-((2-(cyanomethyl)-4-(4-(2-cyanovinyl)-2,6-dimethylphenoxy)-2H-pyrazolo[3,4-d]pyrimidin-6-yl)amino)bicyclo[1.1.1]pentane-1-carbonitrile] | 107
Cc1cc(/C=C/C#N)cc(C)c1Oc1nc(NC23CC(C#N)(C2)C3)nc2nn(CCO)cc12 [Compound 305, (E)-3-((4-(4-(2-cyanovinyl)-2,6-dimethylphenoxy)-2-(2-hydroxyethyl)-2H-pyrazolo[3,4-d]pyrimidin-6-yl)amino)bicyclo[1.1.1]pentane-1-carbonitrile] | 45
Cc1cc(/C=C/C#N)cc(C)c1Oc1nc(NC23CC(C#N)(C2)C3)nc2c1C1(C)O[C@H](C)CN1C2=O (stereo partly drawn) [Compound 308, 3-(((6R)-4-(4-((E)-2-cyanovinyl)-2,6-dimethylphenoxy)-4b,6-dimethyl-9-oxo-4b,6,7,9-tetrahydrooxazolo[3′,2′:1,5]pyrrolo[3,4-d]pyrimidin-2-yl)amino)bicyclo[1.1.1]pentane-1-carbonitrile] | 60.1
Cc1cc(/C=C/C#N)cc(C)c1Oc1nc(NC23CC(C#N)(C2)C3)nc2c1[C@H](C)N(c1cnn(C)c1)C2=O [Compound 312, (S,E)-3-((4-(4-(2-cyanovinyl)-2,6-dimethylphenoxy)-5-methyl-6-(1-methyl-1H-pyrazol-4-yl)-7-oxo-6,7-dihydro-5H-pyrrolo[3,4-d]pyrimidin-2-yl)amino)bicyclo[1.1.1]pentane-1-carbonitrile] | 15.1
